# Earlier results, collected in US20240139257A1, “METHODS AND COMPOSITIONS FOR ALOPECIA TREATMENT USING FIBROBLASTS AND FIBROBLAST-DERIVED PRODUCTS” (FIGENE, LLC, priority 2021, published 2024).
# How the values were obtained:
# [1] = test system: interferon (IFN)-gamma mRNA; conditions: scalp biopsies, AA patients, after successful DCP treatment; still above the constitutive level found in controls
# IL-2 mRNA = conditions: scalp biopsies, AA patients, after successful DCP treatment
# IL-8 mRNA = conditions: scalp biopsies, AA patients, after successful DCP treatment
# IL-10 mRNA = conditions: scalp biopsies, AA patients, after successful DCP treatment
# [2] = test system: tumor necrosis factor-alpha mRNA; conditions: scalp biopsies, AA patients, after successful DCP treatment
smiles,measurement,setting,value
"O=c1c(-c2ccccc2)c1-c1ccccc1 [DCP, diphenylcyclopropenone]",IFN-gamma expression after DCP treatment,[1],reduced
same,mRNA expression of IL-2 after DCP treatment,IL-2 mRNA,increased
same,mRNA expression of IL-8 after DCP treatment,IL-8 mRNA,increased
same,mRNA expression of IL-10 after DCP treatment,IL-10 mRNA,increased
same,mRNA expression of tumor necrosis factor-alpha after DCP treatment,[2],increased
same,Therapeutic benefit of topical immunotherapy in AA patients,alopecia areata (AA),some therapeutic benefits
